The source of these data is patent US20090149417A1, “Methods and compositions for the treatment of cancer using benzopyrone-type PARP inhibitors” (priority 2007, published 2009).

Data set [1] has as its system Colo375FG metastatic pancreatic adenocarcinoma cells. The experiment in a line: TUNEL apoptosis assay (flow cytometry). The format is cell-based, human. Particulars: for Dead cells TUNEL (%): Compound IIIc 0 mM. The protocol: Cells are labeled for apoptosis with the “In Situ Cell Death Detection Kit, Fluorescein” (Roche Diagnostics Corporation, Roche Applied Science, Indianapolis, Ind.). Briefly, fixed cells are centrifuged and washed once in phosphate-buffered saline (PBS) containing 1% bovine serum albumin (BSA), then resuspended in 2 ml permeabilization buffer (0.1% Triton X-100 and 0.1% sodium citrate in PBS) for 25 min at room temperature and washed twice in 0.2 ml PBS/1% BSA. The cells are resuspended in 50 μl TUNEL reaction mixture (TdT enzyme and labeling solution) and incubated for 60 min at 37° C. in a humidified dark atmosphere in an incubator. The labeled cells are washed once in PBS/1% BSA, then resuspended in 0.5 ml ice-cold PBS containing 1 μg/ml 4′,6-diamidino-2-phenylindole (DAPI) for at least 30 min. All cell samples are analyzed with a BD LSR II (BD Biosciences, San Jose, Calif.).
The cells are labeled for apoptosis with the “In Situ Cell Death Detection Kit, Fluorescein” (Roche Diagnostics Corporation, Roche Applied Science, Indianapolis, Ind.). Briefly, fixed cells are centrifuged and washed once in phosphate-buffered saline (PBS) containing 1% bovine serum albumin (BSA), then resuspended in 2 ml permeabilization buffer (0.1% Triton X-100 and 0.1% sodium citrate in PBS) for 25 minutes at room temperature and washed twice in 0.2 ml PBS/1% BSA. The cells are resuspended in 50 μl TUNEL reaction mixture (TdT enzyme and labeling solution) and incubated for 60 min at 37° C. in a humidified dark atmosphere in an incubator. The labeled cells are washed once in PBS/1% BSA, then resuspended in 0.5 ml ice-cold PBS containing 1 μg/ml 4,6-diamidino-2-phenylindole (DAPI) for at least 30 min. All cell samples are analyzed with a BD LSR II (BD Biosciences, San Jose, Calif.).
Background: In flow cytometry, cells or beads pass a laser one at a time.

For data set [2], the system named is human SW620 colon adenocarcinoma. The experiment in a line: Human SW620 colon adenocarcinoma xenograft model in nude mice. The format is in vivo. The protocol:
The animals are fed ad libitu water (reverse osmosis, 1 ppm Cl) and NIH 31 Modified and Irradiated Lab Diet® consisting of 18.0% crude protein, 5.0% crude fat, and 5.0% crude fiber. The mice are housed on irradiated ALPHA-dri® bed-o-cobs® Laboratory Animal Bedding in static microisolators on a 12-hour light cycle at 21-22° C. (70-72° F.) and 40-60% humidity. PRC specifically complies with the recommendations of the Guide for Care and Use of Laboratory Animals with respect to restraint, husbandry, surgical procedures, feed and fluid regulation, and veterinary care. […]
The human SW620 colon adenocarcinoma utilized in the present study is maintained in nude mice by serial engraftment. […] Tumors are monitored twice weekly and then daily as their volumes approached 80-120 mm^3. […] Tumor size, in mm3, is calculated from: […]
Tumors are calipered twice weekly for the duration of the study. […] The time to endpoint (TTE) for each mouse is calculated according to the following equation: […]
where TTE is expressed in days, endpoint volume is in mm3, b is the intercept, and m is the slope of the line obtained by linear regression of a log-transformed tumor growth data set. […] The calculated TTE is usually less than the day on which an animal is euthanized for tumor size. […]

A further data set deals with L3.6 μl PC cells. The experiment in a line: Luciferase-expressing pancreatic cancer orthotopic nude mouse model. The format is in vivo. The following applies: 100 mg/kg/day 2/week×4 weeks. As to the method:
The therapeutic efficacy of IIIg on tumor growth and survival is evaluated in different luciferase-expressing pancreatic cancer orthotopic nude mouse models using an IVIS100 Imaging System, allowing a quantitative real time monitoring of tumor growth.
Mice are monitored daily for signs of toxicity including weight loss, diarrhea, inactivity, and general appearance.

The subject of data set [3] is eight pancreatic cancer cells. Put plainly: BrdU-ELISA proliferation assay, IIIg alone and with oxaliplatin. The format is cell-based, human. The protocol:
The effect of IIIg alone and in combination with oxaliplatin on the proliferation of eight pancreatic cancer cells is determined using a BrdU-ELISA assay.
Assessment of synergy is performed according to the method described by Chou and Talalay.
In general terms: An ELISA detects its analyte on a solid surface through an enzyme-linked reagent.

In the next data set the test system is malignant cancer cells. The following applies: malignant versus nonmalignant cells; Kirsten E, Kun E, Int J Mol Med 2000; cited from earlier work.

In general, IC50 refers to the concentration that gives 50% inhibition.

“And” between values parts separate entries of the source, which are not always exact repeats. Equal entries are not always repeated.

As to `O=c1ccc2c(I)c([N+](=O)[O-])ccc2o1` [IIIg, 5-iodo-6-nitro-benzopyrone], the “TUNEL (%)” value in data set [1] (IIIg 2.5 μM, OxaliPt 0 μM) is 3.3% and 2.5%; in data set [1] (combination: IIIg 2.5 μM + OxaliPt 10 μM) it was 19%; in data set [1] (combination: IIIg 2.5 μM + OxaliPt 20 μM), 42%; in data set [1] (combination: IIIg 12.5 μM + OxaliPt 10 μM), 57.3%; in data set [1] (combination: IIIg 12.5 μM + OxaliPt 20 μM) it was 85.7%; in data set [1] (combination: IIIg 25 μM + OxaliPt 10 μM), 89.5%. The “TUNEL (%)” value in data set [1] (combination: IIIg 25 μM + OxaliPt 20 μM) is recorded as 94.2%. Further, the “Survival of tumor-bearing animals” value in data set [2] (biweekly intraperitoneal injection, 50 mg/kg) is “prolongs survival”. For the same molecule, the Tumor growth entry in data set [2] (once-daily or twice-weekly administration) was “inhibits tumor growth”. The Signs of toxicity entry with L3.6 μl PC cells was “without signs of toxicity”. The Survival entry with L3.6 μl PC cells is given as “prolongs survival”. Also, in the data set with L3.6 μl PC cells, the Tumor burden entry is on record as “significantly reduces the tumor burden”. The IC50 in data set [3] (Homo sapiens, Pancreatic cancer cell, IIIg alone, range over eight PC cell lines, read-out: IC50 (growth of eight PC cell lines)) was in the range of 5 to 10 µM. The “Potentiation of oxaliplatin cytotoxicity” value in data set [3] (different pancreatic cancer cell models) is reported as “potentiates oxaliplatin cytotoxicity”. In addition, in the data set on malignant cancer cells, the Selective cytotoxicity entry is “selective cytotoxicity upon malignant cancer cells but not upon nonmalignant cells”.

With `O=C1[O][Pt]2([NH][C@@H]3CCCC[C@H]3[NH]2)[O]C1=O` [OxaliPt, oxaliplatin, reference compound], the results for the “Dead cells TUNEL (%)” value in data set [1] (OxaliPt 10 mM) and in data set [1] (OxaliPt 20 mM) were 21.0% and 48.3%, respectively. The “TUNEL (%)” value is on record as 21% in data set [1] (IIIg 0 μM, OxaliPt 10 μM) and 48.3% in data set [1] (IIIg 0 μM, OxaliPt 20 μM).
